Assay results: ChEMBL document CHEMBL5584296, “Discovery of Novel Pyrimidine-Based Derivatives as Nav1.2 Inhibitors with Efficacy in Mouse Models of Epilepsy” (J Med Chem, 2024)

Assays:
[1] = Neurotoxicity in male ICR mouse assessed as motor impairment at 5 mg/kg, ip administered for 30 mins by rotarod test relative to control; type: toxicity, organism-based; conditions: in vivo, 0.5 h
[2] = molecular target: T1, Sodium channel protein type 2 subunit alpha (Homo sapiens, UniProt Q99250); test: Inhibition of human Nav1.2 expressed in HEK293 cells assessed as test to control ratio at 10 uM measured after 5 mins by whole cell voltage clamp electrophysiological analysis; type: cell-based
Target sequence in this assay (Q99250 whole entry, looked up): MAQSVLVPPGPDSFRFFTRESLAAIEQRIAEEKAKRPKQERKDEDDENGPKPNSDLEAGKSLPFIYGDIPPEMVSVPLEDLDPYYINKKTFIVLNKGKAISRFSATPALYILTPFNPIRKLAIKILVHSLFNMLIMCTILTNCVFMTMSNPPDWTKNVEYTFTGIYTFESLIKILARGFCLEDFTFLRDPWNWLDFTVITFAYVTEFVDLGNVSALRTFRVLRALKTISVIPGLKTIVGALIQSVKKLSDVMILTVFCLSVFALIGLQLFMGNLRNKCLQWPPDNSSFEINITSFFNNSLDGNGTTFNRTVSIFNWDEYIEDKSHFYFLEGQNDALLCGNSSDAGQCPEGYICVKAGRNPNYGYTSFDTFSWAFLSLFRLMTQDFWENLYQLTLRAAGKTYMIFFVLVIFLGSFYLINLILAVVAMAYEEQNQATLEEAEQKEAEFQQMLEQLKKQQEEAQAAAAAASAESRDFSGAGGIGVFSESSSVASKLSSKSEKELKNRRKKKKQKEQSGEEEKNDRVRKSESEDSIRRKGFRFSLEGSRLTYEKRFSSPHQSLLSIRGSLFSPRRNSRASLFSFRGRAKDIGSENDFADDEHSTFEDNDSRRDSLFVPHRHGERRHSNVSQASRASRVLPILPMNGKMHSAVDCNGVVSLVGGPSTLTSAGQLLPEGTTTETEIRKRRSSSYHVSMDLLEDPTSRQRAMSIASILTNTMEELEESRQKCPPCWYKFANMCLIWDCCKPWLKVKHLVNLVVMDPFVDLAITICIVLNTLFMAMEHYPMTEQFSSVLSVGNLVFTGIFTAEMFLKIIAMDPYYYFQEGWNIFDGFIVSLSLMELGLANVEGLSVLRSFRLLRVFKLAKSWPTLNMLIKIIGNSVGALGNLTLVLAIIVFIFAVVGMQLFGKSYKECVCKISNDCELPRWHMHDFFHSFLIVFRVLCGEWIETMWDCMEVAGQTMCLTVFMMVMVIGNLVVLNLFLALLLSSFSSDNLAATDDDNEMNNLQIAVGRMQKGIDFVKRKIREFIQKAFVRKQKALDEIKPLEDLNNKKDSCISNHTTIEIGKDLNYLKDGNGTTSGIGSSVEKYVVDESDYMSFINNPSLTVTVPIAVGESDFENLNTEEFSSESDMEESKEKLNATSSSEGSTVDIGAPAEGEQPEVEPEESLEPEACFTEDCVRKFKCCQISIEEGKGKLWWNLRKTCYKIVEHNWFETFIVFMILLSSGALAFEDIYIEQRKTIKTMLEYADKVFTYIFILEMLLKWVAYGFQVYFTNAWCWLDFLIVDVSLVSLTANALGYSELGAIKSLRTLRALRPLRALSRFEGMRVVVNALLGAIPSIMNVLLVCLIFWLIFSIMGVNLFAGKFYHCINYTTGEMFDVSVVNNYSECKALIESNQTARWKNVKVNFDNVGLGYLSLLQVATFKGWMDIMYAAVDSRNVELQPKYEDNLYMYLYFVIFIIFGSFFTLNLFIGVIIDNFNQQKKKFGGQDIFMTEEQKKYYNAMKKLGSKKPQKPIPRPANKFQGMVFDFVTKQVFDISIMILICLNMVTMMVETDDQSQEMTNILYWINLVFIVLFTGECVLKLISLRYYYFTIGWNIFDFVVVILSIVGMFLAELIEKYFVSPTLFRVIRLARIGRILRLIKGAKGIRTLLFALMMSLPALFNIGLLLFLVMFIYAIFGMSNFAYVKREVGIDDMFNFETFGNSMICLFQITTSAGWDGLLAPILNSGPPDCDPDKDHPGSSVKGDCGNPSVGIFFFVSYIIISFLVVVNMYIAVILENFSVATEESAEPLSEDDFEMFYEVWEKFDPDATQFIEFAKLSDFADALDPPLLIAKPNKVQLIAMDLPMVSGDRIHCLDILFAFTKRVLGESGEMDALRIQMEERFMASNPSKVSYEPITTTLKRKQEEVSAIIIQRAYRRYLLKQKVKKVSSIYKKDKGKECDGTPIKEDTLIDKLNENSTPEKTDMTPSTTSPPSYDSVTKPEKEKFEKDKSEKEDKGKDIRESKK

[3] = molecular target: T1, Sodium channel protein type 2 subunit alpha; test: Inhibition of human Nav1.2 expressed in HEK293 cells assessed as test to control ratio at 1 uM measured after 5 mins by whole cell voltage clamp electrophysiological analysis; type: cell-based
Target sequence in this assay (Q99250 whole entry, looked up): as above

[4] = molecular target: T1, Sodium channel protein type 2 subunit alpha; test: Inhibition of human Nav1.2 expressed in HEK293 cells assessed as test to control ratio at 0.1 uM measured after 5 mins by whole cell voltage clamp electrophysiological analysis; type: cell-based
Target sequence in this assay (Q99250 whole entry, looked up): as above

[5] = molecular target: T1, Sodium channel protein type 2 subunit alpha; test: Inhibition of human Nav1.2 expressed in HEK293 cells at -40 mv holding potential measured after 5 mins by whole cell voltage clamp electrophysiological analysis; type: cell-based
Target sequence in this assay (Q99250 whole entry): as the sequence (Q99250 whole entry, looked up) above

[6] = molecular target: T1, Sodium channel protein type 2 subunit alpha; test: Inhibition of human Nav1.2 expressed in HEK293 cells at -120 mv holding potential measured after 5 mins by whole cell voltage clamp electrophysiological analysis; type: cell-based
Target sequence in this assay (Q99250 whole entry): as the sequence (Q99250 whole entry, looked up) above

[7] = molecular target: Sodium channel protein type 1 subunit alpha (Homo sapiens) (UniProt P35498); test: Inhibition of human Nav1.1 expressed in HEK293 cells assessed as test to control ratio at 0.1 uM by whole cell voltage clamp electrophysiological analysis; type: cell-based
[8] = molecular target: Sodium channel protein type 1 subunit alpha (Homo sapiens) (UniProt P35498); test: Inhibition of human Nav1.1 expressed in HEK293 cells assessed as test to control ratio at 1 uM by whole cell voltage clamp electrophysiological analysis; type: cell-based
[9] = molecular target: T2, Sodium channel protein type 5 subunit alpha (Homo sapiens, UniProt Q14524); test: Inhibition of human Nav1.5 expressed in CHL cells assessed as test to control ratio at 0.1 uM by whole cell voltage clamp electrophysiological analysis; type: cell-based
[10] = molecular target: T2, Sodium channel protein type 5 subunit alpha; test: Inhibition of human Nav1.5 expressed in CHL cells assessed as test to control ratio at 1 uM by whole cell voltage clamp electrophysiological analysis; type: cell-based
[11] = molecular target: Sodium channel protein type 8 subunit alpha (Homo sapiens) (UniProt Q9UQD0); test: Inhibition of human Nav1.6 expressed in CHO cells assessed as test to control ratio at 0.1 uM by whole cell voltage clamp electrophysiological analysis; type: cell-based
[12] = molecular target: Sodium channel protein type 8 subunit alpha (Homo sapiens) (UniProt Q9UQD0); test: Inhibition of human Nav1.6 expressed in CHO cells assessed as test to control ratio at 1 uM by whole cell voltage clamp electrophysiological analysis; type: cell-based
Mus musculus [13] = test: Antiepileptic activity in MES-induced seizure male ICR mouse model assessed as protection against tonic hind limb extension at 5 mg/kg, ip measured after 30 mins relative to control; type: functional; conditions: 0.5 h
Mus musculus [14] = test: Antiepileptic activity in MES-induced seizure male ICR mouse model assessed as protection against tonic hind limb extension at 15 mg/kg, ip measured after 30 mins relative to control; type: functional; conditions: 0.5 h
Mus musculus [15] = test: Antiepileptic activity in MES-induced seizure male ICR mouse model assessed as protection against tonic hind limb extension at 25 mg/kg, ip measured after 30 mins relative to control; type: functional; conditions: 0.5 h
Mus musculus [16] = test: Antiepileptic activity in MES-induced seizure male ICR mouse model assessed as protection against tonic hind limb extension administered intraperitoneally for 30 mins; type: functional; conditions: 0.5 h, route ip
Mus musculus [17] = test: Antiepileptic activity in 6 Hz(32 mA)-induced seizure male C57BL mouse model assessed as protection against seizure at 10 mg/kg, ip administered for 30 mins by epilepsy test; type: functional; conditions: 0.5 h
Mus musculus [18] = test: Antiepileptic activity in 6 Hz(32 mA)-induced seizure male C57BL mouse model assessed as protection against seizure at 30 mg/kg, ip administered for 30 mins by epilepsy test; type: functional; conditions: 0.5 h
Mus musculus [19] = test: Antiepileptic activity in 6 Hz(32 mA)-induced seizure male C57BL mouse model assessed as protection against seizure at 5 mg/kg, ip administered for 30 mins by epilepsy test; type: functional; conditions: 0.5 h
Mus musculus [20] = test: Antiepileptic activity in 6 Hz(32 mA)-induced seizure male C57BL mouse model administered intraperitoneally for 30 mins by epilepsy test; type: functional; conditions: 0.5 h, route ip
[21] = Neurotoxicity in male ICR mouse assessed as motor impairment at 30 mg/kg, ip administered for 30 mins by rotarod test relative to control; type: toxicity, organism-based; conditions: in vivo, 0.5 h
[22] = Neurotoxicity in male ICR mouse assessed as motor impairment at 35 mg/kg, ip administered for 30 mins by rotarod test relative to control; type: toxicity, organism-based; conditions: in vivo, 0.5 h
[23] = Neurotoxicity in male ICR mouse assessed as motor impairment at 37 mg/kg, ip administered for 30 mins by rotarod test relative to control; type: toxicity, organism-based; conditions: in vivo, 0.5 h
[24] = Neurotoxicity in male ICR mouse assessed as motor impairment at 40 mg/kg, ip administered for 30 mins by rotarod test relative to control; type: toxicity, organism-based; conditions: in vivo, 0.5 h
[25] = Neurotoxicity in male ICR mouse administered intraperitoneally for 30 mins; type: toxicity; conditions: in vivo, route ip
[26] = molecular target: T1, Sodium channel protein type 2 subunit alpha; test: Inhibition of human Nav1.2 expressed in HEK293 cells assessed as effect on steady state activation by measuring half activation potential at 0.2 uM (reference value: -36 mV); type: cell-based
Target sequence in this assay (Q99250 whole entry, looked up): as above

[27] = molecular target: T1, Sodium channel protein type 2 subunit alpha; test: Inhibition of human Nav1.2 expressed in HEK293 cells assessed as effect on steady state inactivation by measuring half activation potential at 0.2 uM (reference value: -54 mV); type: cell-based
Target sequence in this assay (Q99250 whole entry, looked up): as above

Mus musculus [28] = test: Antiepileptic activity in MES-induced seizure male ICR mouse model assessed as protection against tonic hind limb extension at 10 mg/kg, ip measured after 30 mins relative to control; type: functional; conditions: 0.5 h
Mus musculus [29] = test: Antiepileptic activity in MES-induced seizure male ICR mouse model assessed as protection against tonic hind limb extension at 20 mg/kg, ip measured after 30 mins relative to control; type: functional; conditions: 0.5 h
Mus musculus [30] = test: Antiepileptic activity in MES-induced seizure male ICR mouse model assessed as protection against tonic hind limb extension at 30 mg/kg, ip measured after 30 mins relative to control; type: functional; conditions: 0.5 h
Mus musculus [31] = test: Antiepileptic activity in 6 Hz(32 mA)-induced seizure male C57BL mouse model assessed as protection against seizure at 50 mg/kg, ip administered for 30 mins by epilepsy test; type: functional; conditions: 0.5 h
[32] = Neurotoxicity in male ICR mouse assessed as motor impairment at 150 mg/kg, ip administered for 30 mins by rotarod test relative to control; type: toxicity, organism-based; conditions: in vivo, 0.5 h
[33] = Neurotoxicity in male ICR mouse assessed as motor impairment at 250 mg/kg, ip administered for 30 mins by rotarod test relative to control; type: toxicity, organism-based; conditions: in vivo, 0.5 h
[34] = Neurotoxicity in male ICR mouse assessed as motor impairment at 300 mg/kg, ip administered for 30 mins by rotarod test relative to control; type: toxicity, organism-based; conditions: in vivo, 0.5 h
[35] = molecular target: T1, Sodium channel protein type 2 subunit alpha; test: Inhibition of human Nav1.2 expressed in HEK293 cells assessed as effect on steady state activation by measuring half activation potential at 20 uM (reference value: -37 mV); type: cell-based
Target sequence in this assay (Q99250 whole entry, looked up): as above

[36] = molecular target: T1, Sodium channel protein type 2 subunit alpha; test: Inhibition of human Nav1.2 expressed in HEK293 cells assessed as effect on steady state inactivation by measuring half activation potential at 20 uM (reference value: -59 mV); type: cell-based

T2 sequence (Q14524 whole entry): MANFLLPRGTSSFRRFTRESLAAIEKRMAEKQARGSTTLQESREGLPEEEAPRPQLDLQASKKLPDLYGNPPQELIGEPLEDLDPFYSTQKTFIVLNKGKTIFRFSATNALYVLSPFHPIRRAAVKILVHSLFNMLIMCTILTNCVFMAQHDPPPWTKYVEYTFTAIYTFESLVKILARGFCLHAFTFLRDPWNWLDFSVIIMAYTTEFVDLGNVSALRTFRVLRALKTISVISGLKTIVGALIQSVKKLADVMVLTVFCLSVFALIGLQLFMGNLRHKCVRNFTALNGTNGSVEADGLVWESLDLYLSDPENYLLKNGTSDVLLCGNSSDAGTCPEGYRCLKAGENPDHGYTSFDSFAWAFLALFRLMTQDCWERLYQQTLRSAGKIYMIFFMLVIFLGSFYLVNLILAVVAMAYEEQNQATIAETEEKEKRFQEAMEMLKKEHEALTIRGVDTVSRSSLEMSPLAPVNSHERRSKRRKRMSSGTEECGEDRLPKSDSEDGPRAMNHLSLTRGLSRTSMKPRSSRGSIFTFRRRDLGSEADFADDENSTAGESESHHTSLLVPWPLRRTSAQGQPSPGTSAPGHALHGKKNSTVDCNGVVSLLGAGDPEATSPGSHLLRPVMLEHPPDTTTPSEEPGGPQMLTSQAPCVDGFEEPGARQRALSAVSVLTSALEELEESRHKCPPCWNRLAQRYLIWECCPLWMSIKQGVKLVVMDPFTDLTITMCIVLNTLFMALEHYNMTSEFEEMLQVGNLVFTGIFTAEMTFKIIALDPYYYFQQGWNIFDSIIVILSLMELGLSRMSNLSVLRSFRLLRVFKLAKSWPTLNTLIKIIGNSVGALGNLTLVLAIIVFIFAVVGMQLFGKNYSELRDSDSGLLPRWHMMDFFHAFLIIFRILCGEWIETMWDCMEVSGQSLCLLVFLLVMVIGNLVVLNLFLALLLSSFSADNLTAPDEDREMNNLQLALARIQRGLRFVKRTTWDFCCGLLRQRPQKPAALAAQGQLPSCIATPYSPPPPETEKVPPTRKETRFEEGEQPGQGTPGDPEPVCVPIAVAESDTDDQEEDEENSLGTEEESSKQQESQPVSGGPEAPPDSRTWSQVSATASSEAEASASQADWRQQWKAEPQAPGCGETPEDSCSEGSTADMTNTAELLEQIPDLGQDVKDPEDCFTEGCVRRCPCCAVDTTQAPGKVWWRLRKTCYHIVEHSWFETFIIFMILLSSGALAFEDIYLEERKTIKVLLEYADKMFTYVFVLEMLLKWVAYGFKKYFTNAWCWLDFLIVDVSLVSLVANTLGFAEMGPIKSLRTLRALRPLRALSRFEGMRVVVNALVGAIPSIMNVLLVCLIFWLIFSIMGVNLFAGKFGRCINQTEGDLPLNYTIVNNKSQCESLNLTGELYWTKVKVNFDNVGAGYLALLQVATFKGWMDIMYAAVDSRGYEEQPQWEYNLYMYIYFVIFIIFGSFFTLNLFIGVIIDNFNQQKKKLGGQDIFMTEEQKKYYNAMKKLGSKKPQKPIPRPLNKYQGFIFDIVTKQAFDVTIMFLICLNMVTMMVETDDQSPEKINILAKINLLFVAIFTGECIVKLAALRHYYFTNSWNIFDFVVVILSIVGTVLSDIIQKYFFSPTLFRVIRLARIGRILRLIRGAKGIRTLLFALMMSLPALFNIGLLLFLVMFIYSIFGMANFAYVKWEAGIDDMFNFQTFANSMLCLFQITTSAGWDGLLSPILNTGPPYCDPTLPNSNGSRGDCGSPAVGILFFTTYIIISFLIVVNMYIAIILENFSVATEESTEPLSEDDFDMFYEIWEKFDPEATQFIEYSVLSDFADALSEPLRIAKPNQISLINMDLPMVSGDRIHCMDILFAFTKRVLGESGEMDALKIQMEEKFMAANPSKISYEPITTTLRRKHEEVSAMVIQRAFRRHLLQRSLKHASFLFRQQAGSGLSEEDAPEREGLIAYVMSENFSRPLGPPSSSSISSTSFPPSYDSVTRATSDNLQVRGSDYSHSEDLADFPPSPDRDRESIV

SMILES | T/C [2] | T/C [3] | T/C [4] | IC50 [5] [µM] | IC50 [6] [µM] | T/C [7] | T/C [8] | T/C [9] | T/C [10] | T/C [11] | T/C [12] | ED50 (Mus musculus [16]) [mg/kg] | Activity (Mus musculus [17]) [%] | Activity (Mus musculus [18]) [%] | ED50 (Mus musculus [20]) [mg/kg] | TD50 at 0.5 h [25] [mg/kg] | also measured
CN(C)CCCN1c2ccccc2Sc2ccc(Cl)cc21 [CHLORPROMAZINE] |  |  |  |  |  |  |  |  |  |  |  |  |  |  |  |  | Activity [1]: 88%
COc1cccc(-c2cc(N3CCCc4ccc(C)cc4C3)nc(N)n2)c1 | 0 | 0.04 | 0.39 | 0.065 | 0.158 | 0.18 | 0.02 | 0.18 | 0.07 | 0.42 | 0.09 | 11.1 | 38 | 63 | 18.5 | 31.9 | Activity (Mus musculus [13]): 25%; Activity (Mus musculus [14]): 44%; Activity (Mus musculus [15]): 88%; Activity (Mus musculus [19]): 13%; Activity [21]: 38%; Activity [22]: 63%; Activity [23]: 88%; Activity [24]: 100%; V1/2 [26]: -30 mV; V1/2 [27]: -56 mV
COc1cccc(-c2cc(N3CC4CC(C3)c3ccccc34)nc(N)n2)c1 | 0.02 | 0.4 | 0.87 | 0.635 | 21.5 | 0.93 | 0.33 | 0.89 | 0.37 | 0.51 | 0.1 | 15.8 | 13 | 38 | 38 | 232 | Activity (Mus musculus [28]): 38%; Activity (Mus musculus [29]): 50%; Activity (Mus musculus [30]): 75%; Activity (Mus musculus [31]): 63%; Activity [32]: 13%; Activity [33]: 38%; Activity [34]: 88%; V1/2 [35]: -32 mV; V1/2 [36]: -70 mV
